Data set [1] relates to HepG2. As to the kind of experiment: Antiinvasive activity against human HepG2 cells by matrigel-based transwell assay. Type of data set: functional, cell-based.
A further data set has as its system MHCC97H. As to the kind of experiment: Antiinvasive activity against human MHCC97H cells by matrigel-based transwell assay. In kind it is functional, cell-based.
For the next data set, the system named is SMMC-7721. As to the kind of experiment: Antiinvasive activity against human SMMC7721 cells by matrigel-based transwell assay. In kind it is functional, cell-based.
In another data set the test system is RAW264.7. As to the kind of experiment: Inhibition of LPS-induced nitric oxide production in mouse RAW264.7 cells measured after 20 hrs by Griess assay. Type of data set: functional, cell-based. The following applies: RAW264.7, 20 h.
The subject of another data set is SW-620. As to the kind of experiment: Cytotoxicity against human SW620 cells assessed as inhibition of cell proliferation after 24 hrs by WST1 assay. Type of data set: functional, cell-based. Conditions: SW-620, 24 h.
The test system of data set [2] is HepG2. As to the kind of experiment: Cytotoxicity against human HepG2 cells assessed as inhibition of cell proliferation after 24 hrs by WST1 assay. Type of data set: functional, cell-based. The following applies: HepG2, 24 h.
For a further data set, the system named is U-937. As to the kind of experiment: Cytotoxicity against human U937 cells after 3 days by WST1 assay. The following applies: U-937, 72 h. In kind it is functional, cell-based.
The species entered for data set [3] is Mus musculus. Nature of the data set: Sedative effect in Swiss mouse assessed as reduction in motility at plasma concentration of 27 nM. In kind it is functional. Also on record: scale not given: the % may be the effect or the level left.
The subject of another data set is T47D. As to the kind of experiment: Cytotoxicity against human T47D cells assessed as inhibition of cell proliferation after 24 hrs by WST1 assay. Type of data set: functional, cell-based.
The subject of the next data set is Trichophyton rubrum. Nature of the data set: Antimicrobial activity against Trichophyton rubrum after 7 days by microdilution method. Type of data set: functional. The following applies: 168 h.
A further data set relates to HeLa. Nature of the data set: Cytotoxicity against human HeLa cells after 3 days by WST1 assay. In kind it is functional, cell-based. Conditions: 72 h.
Another data set relates to Candida albicans. Nature of the data set: Antimicrobial activity against Candida albicans. In kind it is functional.
The species entered for data set [4] is Mus musculus. As to the kind of experiment: Sedative effect in Swiss mouse assessed as reduction in motility at 34 nM. Type of data set: functional. Further details: scale not given: the % may be the effect or the level left.
In the next data set the test system is Escherichia coli. As to the kind of experiment: Antibacterial activity against Escherichia coli CMCC 44102 after 24 hrs by broth dilution method. Type of data set: functional.
The test system of a further data set is Gardnerella vaginalis. As to the kind of experiment: Antimicrobial activity against Gardnerella vaginalis. In kind it is functional.
For a further data set, the system named is U373 MG. Nature of the data set: Cytoprotective activity against H2O2-induced cell death in human U373MG cells assessed as increase in cell viability preincubated for 24 hrs followed by H2O2-stimulation and measured after 30 mins by MTT assay. In kind it is functional, cell-based, U-373MG ATCC.
Data set [5] is filed under the species Mus musculus. Nature of the data set: Sedative effect in Swiss mouse assessed as reduction in motility. Type of data set: functional. Further details: scale not given: the % may be the effect or the level left.
In the next data set the test system is HT-29. As to the kind of experiment: Cytotoxicity against human HT-29 cells assessed as reduction in cell viability after 24 hrs by MTT assay. In kind it is functional, cell-based. Conditions: HT-29, 24 h.
Data set [6] deals with T1, Cannabinoid receptor 2 (Homo sapiens, UniProt P34972). Nature of the data set: Displacement of [3H]CP55940 from human CB2 expressed in CHOK1 cell membranes after 2 hrs by liquid scintillation counting method.
For data set [7], the target named is T1, Cannabinoid receptor 2. Nature of the data set: Agonist activity at recombinant human Cb2 receptor expressed in CHOK1 cells assessed as inhibition of forskolin-stimulated cAMP levels measured up to 30 mins by luminescence assay. In kind it is functional, cell-based.
A short description of data set [8]: Antitumor activity against human HubCCA1 cells xenografted in BALB/c nude mouse assessed as reduction in lung metastasis at 100 mg/kg, po administered once daily for 30 days measured post last dose by haematoxylin-eosin staining based assay. Type of data set: functional. Also on record: scale not given: the % may be the effect or the level left.
Data set [9] can be described thus: Antitumor activity against human HubCCA1 cells xenografted in BALB/c nude mouse assessed as reduction in tumor size at 100 mg/kg, po administered once daily for 30 days measured every 3 consecutive days during compound dosing. In kind it is functional. Also on record: scale not given: the % may be the effect or the level left.
A short description of data set [10]: Antitumor activity against human HubCCA1 cells xenografted in BALB/c nude mouse assessed as mouse survival at 100 mg/kg, po administered once daily for 30 days. In kind it is functional.
Data set [11] deals with T2, Transient receptor potential cation channel subfamily A member 1 (Homo sapiens, UniProt O75762). As to the kind of experiment: Agonist activity at human TRPA1.
The subject of another data set is Rattus norvegicus. As to the kind of experiment: Antiischemic stroke activity in iv dosed Sprague-Dawley rat middle cerebral artery occlusion-induced ischemia-reperfusion injury model assessed as decrease in infarct size by TTC staining based assay. In kind it is functional.
The target of data set [12] is T2, Transient receptor potential cation channel subfamily A member 1. Nature of the data set: Antagonist activity at TRPA1 (unknown origin) expressed in Xenopus laevis oocytes assessed as inhibition of mustard oil-induced currents by two-electrode voltage clamp method. Type of data set: cell-based.
A short description of data set [13]: Toxicity in po dosed albino Wistar rat. In kind it is organism-based. Conditions: in vivo.
The test system of a further data set is Leukemia cell. Nature of the data set: Cytotoxicity against ALL/AML patient derived primary leukemia cells after 24 hrs by LDH release assay. Type of data set: functional, cell-based. Conditions: Homo sapiens.
The target of data set [14] is Neuronal acetylcholine receptor subunit alpha-7 (Homo sapiens, UniProt P36544). As to the kind of experiment: Antagonist activity at human alpha7 nACHR expressed in Xenopus laevis oocytes assessed as inhibition of acetylcholine-induced currents at -70 mV holding potential by electrophysiology. Type of data set: cell-based.
Data set [15] can be described thus: Inhibition of IL1beta-induced nitric oxide production in human primary chondrocytes preincubated for 30 mins followed by IL1beta-stimulation and measured after 24 hrs by Griess assay. In kind it is functional, cell-based.
Data set [16] in a line: Toxicity in po dosed mouse. In kind it is organism-based. Conditions: in vivo.
A short description of data set [17]: Toxicity in po dosed rat. In kind it is organism-based. Conditions: in vivo.
Data set [18] in a line: Dermal toxicity in rabbit. Type of data set: organism-based, Oryctolagus cuniculus. Conditions: in vivo, topical or ocular.
The test system of data set [19] is Histoplasma capsulatum. As to the kind of experiment: Antifungal activity against Histoplasma capsulatum filamentous phase after 7 days by broth microdilution method. In kind it is functional. Conditions: 168 h.
Data set [20] relates to Histoplasma capsulatum. As to the kind of experiment: Antifungal activity against Histoplasma capsulatum yeast phase after 4 days by broth microdilution method. Type of data set: functional. Conditions: 96 h.
The test system of a further data set is Coccidioides posadasii. Nature of the data set: Antifungal activity against Coccidioides posadasii filamentous phase after 48 hrs by broth microdilution method. In kind it is functional.
The subject of a further data set is Duodenum. Nature of the data set: Myorelaxant activity in California White rabbit duodenum assessed as relaxation of high-potassium-induced contraction. Conditions: Oryctolagus cuniculus. In kind it is functional, tissue-based.
The test system of a further data set is HL-60. Nature of the data set: Cytotoxicity against human HL60 cells assessed as reduction in cell viability after 24 hrs by MTT assay. In kind it is functional, cell-based. Conditions: HL-60, 24 h.

Converted amounts (≈) assume the structure as drawn. Some results are limits rather than exact numbers.

The values below come from ChEMBL document CHEMBL4411259, “Medicinal properties of terpenes found in Cannabis sativa and Humulus lupulus” (Eur J Med Chem, 2018).

T2 sequence (O75762 whole entry, the tested form may be a part): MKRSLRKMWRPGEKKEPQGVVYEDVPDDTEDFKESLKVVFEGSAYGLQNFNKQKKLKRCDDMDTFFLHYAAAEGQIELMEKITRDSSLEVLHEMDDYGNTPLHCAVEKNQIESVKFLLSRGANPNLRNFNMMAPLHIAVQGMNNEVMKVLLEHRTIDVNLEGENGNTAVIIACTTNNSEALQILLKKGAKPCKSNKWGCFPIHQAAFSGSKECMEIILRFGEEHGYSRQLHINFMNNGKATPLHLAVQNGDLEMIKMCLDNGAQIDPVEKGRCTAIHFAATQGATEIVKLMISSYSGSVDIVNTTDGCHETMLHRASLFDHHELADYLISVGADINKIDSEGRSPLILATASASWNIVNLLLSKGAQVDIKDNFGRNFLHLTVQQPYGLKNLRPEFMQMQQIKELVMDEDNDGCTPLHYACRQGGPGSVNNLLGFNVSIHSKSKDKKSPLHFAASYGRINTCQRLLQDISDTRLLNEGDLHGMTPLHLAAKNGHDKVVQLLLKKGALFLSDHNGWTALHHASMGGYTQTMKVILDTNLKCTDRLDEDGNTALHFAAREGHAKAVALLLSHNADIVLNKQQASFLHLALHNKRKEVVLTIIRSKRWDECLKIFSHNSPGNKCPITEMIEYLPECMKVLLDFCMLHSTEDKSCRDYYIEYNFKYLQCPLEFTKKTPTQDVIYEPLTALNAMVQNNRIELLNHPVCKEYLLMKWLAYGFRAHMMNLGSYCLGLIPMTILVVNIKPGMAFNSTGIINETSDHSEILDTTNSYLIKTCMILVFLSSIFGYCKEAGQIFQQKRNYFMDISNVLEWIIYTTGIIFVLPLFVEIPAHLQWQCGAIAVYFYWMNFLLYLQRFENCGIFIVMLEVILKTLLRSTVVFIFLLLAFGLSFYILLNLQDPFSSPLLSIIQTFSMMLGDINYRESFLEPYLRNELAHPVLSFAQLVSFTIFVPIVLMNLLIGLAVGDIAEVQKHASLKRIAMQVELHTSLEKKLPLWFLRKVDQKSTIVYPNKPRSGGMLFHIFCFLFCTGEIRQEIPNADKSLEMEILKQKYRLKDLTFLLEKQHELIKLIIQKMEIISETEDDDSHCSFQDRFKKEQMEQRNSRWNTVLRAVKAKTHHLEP
T1 sequence (P34972 whole entry): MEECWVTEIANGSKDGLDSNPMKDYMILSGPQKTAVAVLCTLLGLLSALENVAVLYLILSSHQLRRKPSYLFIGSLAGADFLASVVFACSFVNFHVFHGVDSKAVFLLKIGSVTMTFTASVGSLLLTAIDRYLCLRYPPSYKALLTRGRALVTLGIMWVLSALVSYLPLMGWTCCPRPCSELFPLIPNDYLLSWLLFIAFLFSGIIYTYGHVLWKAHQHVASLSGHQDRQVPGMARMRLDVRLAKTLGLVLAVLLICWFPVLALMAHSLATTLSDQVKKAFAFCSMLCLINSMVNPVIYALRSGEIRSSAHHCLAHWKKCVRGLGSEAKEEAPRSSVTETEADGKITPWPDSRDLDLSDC
Sequence of Neuronal acetylcholine receptor subunit alpha-7 (P36544 whole entry): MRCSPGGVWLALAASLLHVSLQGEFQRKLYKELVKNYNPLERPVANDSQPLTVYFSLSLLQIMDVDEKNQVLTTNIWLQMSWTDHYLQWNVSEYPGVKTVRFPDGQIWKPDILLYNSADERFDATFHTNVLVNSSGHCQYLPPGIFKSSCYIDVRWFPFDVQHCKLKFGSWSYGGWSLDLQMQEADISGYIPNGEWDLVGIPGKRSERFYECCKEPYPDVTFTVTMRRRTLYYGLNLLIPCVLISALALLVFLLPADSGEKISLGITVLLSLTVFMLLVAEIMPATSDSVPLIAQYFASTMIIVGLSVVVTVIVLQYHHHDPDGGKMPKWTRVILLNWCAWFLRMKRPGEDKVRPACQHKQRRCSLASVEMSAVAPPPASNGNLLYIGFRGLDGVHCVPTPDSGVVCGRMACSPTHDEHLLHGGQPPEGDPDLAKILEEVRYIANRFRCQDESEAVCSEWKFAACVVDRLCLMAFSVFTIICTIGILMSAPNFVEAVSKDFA

For `C=C(C)[C@H]1CC=C(CO)CC1`, the half-maximal inhibitory concentration (IC50) in the data set with HepG2 [1], in the data set with MHCC97H and with SMMC-7721 was 100 µM each time.

`C/C1=C\CC(C)(C)/C=C/C(=O)/C(C)=C/C(O)C1` (stereo not drawn): the IC50 in the data set on RAW264.7 was 14.1 µM.

Regarding `C=C[C@@](C)(O)CCC=C(C)C`, the 50% inhibitory concentration (IC50) in the data set on SW-620 stood at 222 µM; with HepG2 [2] it was 290 µM; in the data set on U-937, 3 µM; in the data set on T47D, 224 µM; in the data set on HeLa, 11 µM. Further, the Activity in the data set listed under Mus musculus [3] was found to be 73%. This molecule came in with an MIC with Trichophyton rubrum of 260 µg/mL (≈ 1690 µM).

On to `CC1=CCC(C(C)(C)O)CC1` (stereo not drawn), for which the MIC in the data set on Candida albicans came to 0.125 %v/v; against Escherichia coli, 0.78 uL/ml; in the data set with Gardnerella vaginalis it was 0.06 %v/v. Moreover, the Activity in the data set listed under Mus musculus [4] was found to be 45%.

Regarding `CC1=CC[C@@H]2C[C@H]1C2(C)C` [1R-(+)-ALPHA-PINENE], in the data set with U373 MG, the concentration for half-maximal inhibition (IC50) stood at 80 µM. The Activity in the data set filed under Mus musculus [5] came to 14%.

`C/C1=C\CC/C(C)=C/CC(C)(C)/C=C/C1` [ALPHA-HUMULONE]: the IC50 with HT-29 was 54 µM.

As to `C=C1CC/C=C(\C)CC[C@@H]2[C@@H]1CC2(C)C` [BETA-CARYOPHYLLENE], affinity on Cannabinoid receptor 2 [6] was put at a Ki of 0.15 µM. Moreover, the concentration giving a half-maximal response (EC50) on Cannabinoid receptor 2 [7] turned out to be 1.9 µM.

Consider `C=C1CCC[C@]2(C)CC[C@@H](C(C)(C)O)C[C@@H]12` [BETA-EUDESMOL], for which the Activity in data set [8] is 95%; in data set [9], 92%; in data set [10], 64%. For the same molecule, the EC50 in [11] was determined as 33 µM.

For the molecule `CC1(C)C2CCC1(C)C(O)C2` (stereo not drawn) [BORNEOL], the 50% effective dose (ED50) with Rattus norvegicus amounted to 0.36 mg/kg. The concentration for half-maximal inhibition (IC50) in data set [12] is 300 µM.

As to `CC(C)=CCC/C(C)=C/CO` [GERANIOL], the LD50 in data set [13] was 3600 mg/kg.

As to `CC(C)=CCC[C@](C)(O)[C@@H]1CC=C(C)CC1` [LEVOMENOL], the IC50 in the data set on Leukemia cell came out at 14 µM; in data set [14], 3.1 µM.

Molecule `C=CC(=C)CCC=C(C)C` [MYRCENE] had a half-maximal inhibitory concentration (IC50) in data set [15] of 37.3 µg/mL (≈ 274 µM).

On to `C=CC(C)(O)CC/C=C(\C)CCC=C(C)C` (stereo not drawn) [NEROLIDOL], for which the 50% lethal dose (LD50) in [16] was 10000 mg/kg; in data set [17], 5000 mg/kg; in data set [18], over 2000 mg/kg.

As for `CC1=CCC(O)(C(C)C)CC1` (stereo not drawn) [TERPINEOL], the MIC turned out to be 30 µg/mL (≈ 194 µM) in the data set on Histoplasma capsulatum [19], 10 µg/mL (≈ 64.8 µM) with Histoplasma capsulatum [20] and 250 µg/mL (≈ 1620 µM) in the data set on Coccidioides posadasii. Also, the IC50 with Duodenum came out at 170 µM; with HL-60, 30 µM.
